Results taken from patent publication US20040224958A1, “Pyridopyrimidinone derivatives for treatment of neurodegenerative disease” (priority 2000, published 2004).
pIC50: −log10 of the molar value.

Legend:
[1] = target: Cdk5/p25 (Homo sapiens, UniProt Q00535); test: Cyclin-Dependent Kinase 5 (cdk5) Assay; assay type: biochemical; conditions: Table 1
How it was run: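 Radiometric filter-plate assay: components premixed 5 min, reaction started with histone substrate and [^32P]ATP, 45 min at 30° C.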

[2] = target: cdk2/cyclinE (Homo sapiens, UniProt P24941); test: Cyclin-Dependent Kinase Assay cdk2/cyclinE; conditions: cdk2/E IC50, Table 1
[3] = target: cdk4/D (Homo sapiens, UniProt P11802); test: Cyclin-Dependent Kinase 4 (cdk4) Assay; assay type: biochemical; conditions: Table 1; read-out: cdk4/D IC50
[4] = target: cdc2/cyclinB (Homo sapiens, UniProt P06493); test: Cyclin-Dependent Kinase Assay cdc2/cyclinB
[5] = target: cdk2/cyclinA (Homo sapiens, UniProt P24941); test: Cyclin-Dependent Kinase Assay cdk2/cyclinA; conditions: cdk2/A IC50, Table 1

Chain of cdk4/D (P11802 whole entry): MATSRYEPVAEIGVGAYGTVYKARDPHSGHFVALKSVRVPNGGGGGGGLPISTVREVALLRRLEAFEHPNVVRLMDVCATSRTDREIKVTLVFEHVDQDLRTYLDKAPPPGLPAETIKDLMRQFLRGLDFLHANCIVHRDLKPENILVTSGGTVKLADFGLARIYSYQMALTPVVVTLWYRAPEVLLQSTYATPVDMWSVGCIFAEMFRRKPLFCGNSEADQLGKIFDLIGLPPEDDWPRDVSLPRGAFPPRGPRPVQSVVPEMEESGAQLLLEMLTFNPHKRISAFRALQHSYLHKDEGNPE
Chain of cdk4/D (P24385 whole entry, further chain): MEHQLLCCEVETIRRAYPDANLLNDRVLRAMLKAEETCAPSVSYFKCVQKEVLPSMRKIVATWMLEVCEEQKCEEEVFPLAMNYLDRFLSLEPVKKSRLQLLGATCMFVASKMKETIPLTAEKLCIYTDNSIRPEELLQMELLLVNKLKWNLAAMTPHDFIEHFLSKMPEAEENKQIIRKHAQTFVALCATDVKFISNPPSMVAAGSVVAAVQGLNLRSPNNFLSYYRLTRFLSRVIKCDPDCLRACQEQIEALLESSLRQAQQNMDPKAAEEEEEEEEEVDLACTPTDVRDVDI
Chain of cdc2/cyclinB (P06493 whole entry): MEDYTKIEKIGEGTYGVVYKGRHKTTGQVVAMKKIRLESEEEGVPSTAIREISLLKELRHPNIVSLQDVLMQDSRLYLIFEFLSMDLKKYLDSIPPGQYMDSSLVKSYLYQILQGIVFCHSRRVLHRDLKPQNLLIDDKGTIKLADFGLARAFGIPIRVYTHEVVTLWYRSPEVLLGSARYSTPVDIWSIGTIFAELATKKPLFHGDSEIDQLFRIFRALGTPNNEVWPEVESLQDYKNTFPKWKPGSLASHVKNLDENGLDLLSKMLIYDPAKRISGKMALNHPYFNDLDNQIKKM
Chain of cdc2/cyclinB (P14635 whole entry, further chain): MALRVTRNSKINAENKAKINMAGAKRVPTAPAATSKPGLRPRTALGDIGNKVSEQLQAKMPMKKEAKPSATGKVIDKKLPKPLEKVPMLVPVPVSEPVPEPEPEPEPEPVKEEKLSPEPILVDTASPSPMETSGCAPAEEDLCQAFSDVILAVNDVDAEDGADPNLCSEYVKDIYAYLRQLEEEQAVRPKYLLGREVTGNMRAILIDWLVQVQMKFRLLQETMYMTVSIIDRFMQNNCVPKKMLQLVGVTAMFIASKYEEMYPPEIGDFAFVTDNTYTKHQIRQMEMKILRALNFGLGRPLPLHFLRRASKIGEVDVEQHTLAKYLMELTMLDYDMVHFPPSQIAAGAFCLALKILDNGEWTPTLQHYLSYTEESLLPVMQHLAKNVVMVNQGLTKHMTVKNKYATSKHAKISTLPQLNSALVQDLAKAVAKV

Row | SMILES | pIC50 [1] | pIC50 [2] | pIC50 [3] | melting point [°C] | pIC50 [4] | pIC50 [5]
1 | O=c1ccc2cnc(Nc3ccc(F)cc3)nc2n1C1CC2CCC1C2 (stereo not drawn) [Example 212, 8-Bicyclo[2.2.1]hept-2-yl-2-(4-fluoro-phenylamino)-8H-pyrido[2,3-d]pyrimidin-7-one] | 8.00 | 7.85 | 7.53 | 219 to 220 | 6.72 | 7.80
2 | CN(C)c1ccc(Nc2ncc3ccc(=O)n(CCCOCc4ccccc4)c3n2)cc1 [Example 138, 8-(3-Benzyloxy-propyl)-2-(4-dimethylamino-phenylamino)-8H-pyrido[2,3-d]pyrimidin-7-one] | 6.55 | 5.58 | 6.29 | 144 to 146 | 5.48 | 6.66
